Structures can show the parent of a compound that is named as a salt.
Tests used:
[1] = test system: Sarcocystis neurona; experiment: Production of persistent parasitemia in a horse challenged with S. neurona (autologous leukocyte model); type: in vivo
Description: In a first preferred embodiment a parasite population was isolated from horses as described in an experimental model (Experimental infection of horses with culture derived Sarcocystis neurnoa merozoites as a model for equine protozoal myeloencephalitis, 2004) and used to infect a yearling thoroughbred filly. The challenge (6000 organisms/day) was used daily for 10 days. Concurrent with the challenge infection the filly was administered 1 mg/kg levamisole HCl orally for 21 days. […] Daily blood samples were taken and 5 microliters of blood were used to prepare thin layer smears followed by staining with Geimsa. Ten fields were counted to determine the presence of S. neurona. A hemocytometer was used to determine the number of parasites per ml of peripheral blood. […] At the end of fourteen days the filly was treated with decoquinate orally at 0.5 mg/kg for 10 days.

[2] = horses, 5 mg/kg (2800 mg) orally, at one hour; reportedly; cited from earlier work
[3] = test system: S. neurona; conditions: 1 mg/kg
Description: Field cases of idiopathic encephalitis associated with EPM due to S. neurona were identified by veterinary clinical examination. […] Signs were assessed by the Field Veterinarian by a neurological examination of gait and scored on a scale of 1-5. Attributable data was obtained from 27 Field Veterinarians. Thirty-three animals were included into the study, missing data from 21 horses prevented inclusion of these 21 animals into the study analysis. In the included data set, one Field Veterinarian submitted data for 6 animals, one Field Veterinarian submitted data from two animals, and 25 veterinarians submitted data for one animal.
Horses were evaluated for a change in gait score by subtracting the gait score after treatment from the gait score before treatment.

[4] = Day 30, levamisole HCl 1 mg/kg orally 21 days, decoquinate 0.5 mg/kg orally 10 days from end of day 14
[5] = Day 14, 1 mg/kg orally for 21 days concurrent with challenge

SMILES	visible parasites in the blood ([1]; Day 30, decoquinate orally 0.5 mg/kg for 10 days from end of day 14, after levamisole HCl 1 mg/kg for 21 days)	clinical signs of disease [1, 4]	plasma level [2] [ng/mL]	parasitemia ([1]; Day 10, in the serum, 1 mg/kg orally for 21 days concurrent with challenge)	clinical signs of disease ([1]; Day 10, yearling filly, challenge 6000 organisms/day for 10 days, 1 mg/kg orally for 21 days)	clinical signs of disease [1, 5]	parasitemia [1, 5]	animals with gait score worse or not changed after treatment ([3]; 33 horses) [%]	horses with gait score improved by at least one grade after treatment ([3]; 33 horses with signs of EPM not resolved with conventional treatment) [%]
CCCCCCCCCCOc1cc2c(O)c(C(=O)OCC)cnc2cc1OCC [decoquinate]	no visible parasites in the blood	no clinical signs of disease							
c1ccc([C@H]2CN3CCSC3=N2)cc1 [levamisole HCl]		no clinical signs of disease	485	one million	no clinical signs	no clinical signs of disease	one million	18	82

From patent US9880154B2, “Method for screening drugs and animal model for same” (priority 2014, dated 2018)
